Patent US20260295053A1, “COMPOUNDS FOR DEGRADATION AND INHIBITION OF KRAS (G12D) PROTEIN” (Shenzhen Ionova Life Science Co., Ltd., priority 2023, published 2026)

Assays:
KRAS (G12D) = biological target: T1, KRAS (G12D) (Homo sapiens, UniProt P01116, G12D); test: KRAS (G12D) cellular degradation assay in AsPC-1 cells; type: cell-based; details: 24 hours, antibody fluorescence (Odyssey CLX), DC50 half-maximal degradation concentration
T1 construct: in-cell western with KRAS G12D antibody after 24 h
T1 sequence (P01116 1-188 isoform P01116-2 G12D): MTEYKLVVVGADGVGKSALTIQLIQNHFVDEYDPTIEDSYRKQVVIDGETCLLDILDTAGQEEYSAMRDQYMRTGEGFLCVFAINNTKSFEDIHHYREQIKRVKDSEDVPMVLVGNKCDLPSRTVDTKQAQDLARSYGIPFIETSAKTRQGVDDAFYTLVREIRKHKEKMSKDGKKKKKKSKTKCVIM
Method in brief: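 AsPC-1 cells: for degradation, grown to ~90% confluency, treated 24 h with 1:3 compound series ([…] to 1.5 nM), then fixed and immunostained for KRAS G12D and β-actin, read by infrared fluorescence, DC50 fitted. Proliferation: 3,500 cells/well, 6-day treatment, CellTiter Glo luminescence, IC50 fitted.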

AsPC-1 cells = test: AsPC-1 cell proliferation assay (CellTiter Glo); type: cell-based; details: Homo sapiens, ASPC1, 144 h, 6 days
Description: ASPC-1 and PK-59 cellular assays ASPC-1 (ATCC cat. CRL-1682) and PK-59 (Nanjing Cobioer, Cat. No. CBP61184) were used in KRAS cellular degradation, pERK inhibition and proliferation assays. The two cell lines were maintained following vendor's instructions. For monitoring KRAS (G12D) cellular degradation and pERK biomarker inhibition, cells were seeded into a 96-well plate with 22,000 and 16,000 cells/well for assays in ASPC-1 and PK-59, respectively. Cells were incubated at 37° C. with 5% CO2 and cell density was monitored until ^~90% confluency was reached. Compounds were serially diluted at a 1:3 ratio and dispensed into each well at final concentrations ranging from […] to 1.5 nM. After incubation for 24 hours, the culture media were removed and the cells were subjected to fixation, permeabilization and blocking (Intercept blocking buffer, Li-cor). For KRAS (G12D) degradation, the cells were treated with primary antibody (KRAS G12D antibody, Cell Signaling Technologies, Cat. No. CST14429) and for β-actin (β-actin mAb, Beyotime, Cat. No. AF-5001), and followed by secondary antibodies, Anti-rabbit IgG (H+L) (DyLight™ 800 4×PEG Conjugate) or IRDye® 680RD Goat anti-Mouse IgG. For pERK inhibition assay, cells were treated with primary antibodies for pERK (Phospho-p44/42 MAPK (Erk1/2) (Thr202/Tyr204) (D13.14.4E) XP® Rabbit mAb, Cell Signaling Technologies, Cat. No. CST-4370) and β-actin (β-actin mAb, Beyotime, Cat. No. AF-5001), and followed by secondary antibodies, Anti-rabbit IgG (H+L) (DyLight™ 800 4×PEG Conjugate) or IRDye® 680RD Goat anti-Mouse IgG. Fluorescence signals were read on Odyssey CLX instrument. For cell proliferation assays, cells were seeded into a 96-well plate at 3,500 and 800 cells/well for assays in ASPC-1 and PK-59, respectively. Cells were incubated at 37° C. with 5% CO2 for overnight. Compounds were serially diluted at a 1:3 ratio and dispensed into each well at final concentrations ranging from […] to 1.5 nM. After incubation for 6 days, cell viability reagent (CellTiter Glo, Promega, Cat. No. G7573) was added to each well and luminescence was recorded on Molecular Devices Spectramax iD3 instrument. IC50, half-maximal inhibitory concentration for pERK inhibition or cell proliferation, and DC50, half-maximal degradation concentration in KRAS (G12D) cellular degradation were determined by fitting the corresponding dose response curves using GraphPad Prism software.
Wherein “A” means the value <10 nM, “B” means 10 nM<the value <100 nM, “C” means 100 nM<the value <1000 nM, and “D” means the value >1000 nM, in which, the value means the value of DC50 or IC50. NT means not tested.

SMILES	DC50 (KRAS (G12D)) [nM]	IC50 (AsPC-1 cells) [nM]
CCn1nccc1-c1ccc([C@@H](NC(=O)[C@@H]2C[C@@H](O)CN2C(=O)[C@H](C(C)C)n2cc(-c3ccc(COc4c(-c5c(C)c(F)cc6[nH]ncc56)c(C5CC5)cc5c(N6C[C@@H]7C[C@H]6CN7)nc(OC[C@H](C)OC)nc45)cc3)nn2)C(C)O)cc1 (stereo in doubt) [Example 75, (2S,4R)-1-((2S)-2-(4-(4-(((4-((1S,4S)-2,5-diazabicyclo[2.2.1]heptan-2-yl)-6-cyclopropyl-7-(6-fluoro-5-methyl-1H-indazol-4-yl)-2-((S)-2-methoxypropoxy)quinazolin-8-yl)oxy)methyl)phenyl)-1H-1,2,3-triazol-1-yl)-3-methylbutanoyl)-N-((1R,2R)-1-(4-(1-ethyl-1H-pyrazol-5-yl)phenyl)-2-hydroxypropyl)-4-hydroxypyrrolidine-2-carboxamide]	< 10	< 10
CO[C@@H](C)COc1nc(N(C)[C@H]2CCNC2)c2cc(C3CCC3)c(-c3c(C)c(F)cc4[nH]ncc34)c(OCc3ccc(-c4cn([C@H](C(=O)N5C[C@H](O)C[C@H]5C(=O)N[C@H](c5ccc(-c6scnc6C)cc5)C(C)O)C(C)C)nn4)cc3)c2n1 (stereo in doubt) [Example 142, (2S,4R)-1-((2S)-2-(4-(4-(((6-cyclobutyl-7-(6-fluoro-5-methyl-1H-indazol-4-yl)-2-((S)-2-methoxypropoxy)-4-(methyl((S)-pyrrolidin-3-yl)amino)quinazolin-8-yl)oxy)methyl)phenyl)-1H-1,2,3-triazol-1-yl)-3-methylbutanoyl)-4-hydroxy-N-((1R,2R)-2-hydroxy-1-(4-(4-methylthiazol-5-yl)phenyl)propyl)pyrrolidine-2-carboxamide]	< 10	< 10
CCn1nccc1-c1ccc([C@H](CO)NC(=O)[C@@H]2C[C@@H](O)CN2C(=O)[C@H](C(C)C)n2cc(-c3ccc(COc4c(-c5c(C)c(F)cc6[nH]ncc56)c(C(F)(F)F)cc5c(N6C[C@@H]7C[C@H]6CN7)nc(OC[C@H](C)OC)nc45)cc3)nn2)cc1 [Example 30, (2S,4R)-1-((2S)-2-(4-(4-(((4-((1S,4S)-2,5-diazabicyclo[2.2.1]heptan-2-yl)-7-(6-fluoro-5-methyl-1H-indazol-4-yl)-2-((S)-2-methoxypropoxy)-6-(trifluoromethyl)quinazolin-8-yl)oxy)methyl)phenyl)-1H-1,2,3-triazol-1-yl)-3-methylbutanoyl)-N—((R)-1-(4-(1-ethyl-1H-pyrazol-5-yl)phenyl)-2-hydroxyethyl)-4-hydroxypyrrolidine-2-carboxamide]	< 10	< 10
CCn1nccc1-c1ccc([C@H](CO)NC(=O)[C@@H]2C[C@@H](O)CN2C(=O)[C@H](C(C)C)n2cc(-c3ccc(COc4c(-c5c(C)c(F)cc6[nH]ncc56)c(C5CC5)cc5c(N6C[C@@H]7C[C@H]6CN7)nc(OC[C@H](C)OC)nc45)c4c3CC4)nn2)cc1 [Example 31, (2S,4R)-1-((2S)-2-(4-(5-(((4-((1S,4S)-2,5-diazabicyclo[2.2.1]heptan-2-yl)-6-cyclopropyl-7-(6-fluoro-5-methyl-1H-indazol-4-yl)-2-((S)-2-methoxypropoxy)quinazolin-8-yl)oxy)methyl)bicyclo[4.2.0]octa-1,3,5-trien-2-yl)-1H-1,2,3-triazol-1-yl)-3-methylbutanoyl)-N—((R)-1-(4-(1-ethyl-1H-pyrazol-5-yl)phenyl)-2-hydroxyethyl)-4-hydroxypyrrolidine-2-carboxamide]	10 to 100	< 10
CCn1nccc1-c1ccc([C@H](CO)NC(=O)[C@@H]2C[C@@H](O)CN2C(=O)[C@H](C(C)C)n2cc(-c3ccc(COc4c(-c5c(C)c(F)cc6[nH]ncc56)c(C5CC5)cc5c(N6C[C@@H]7C[C@H]6CN7)nc(OC[C@H](C)OC)nc45)cc3Cl)nn2)cc1 [Example 32, (2S,4R)-1-((2S)-2-(4-(4-(((4-((1S,4S)-2,5-diazabicyclo[2.2.1]heptan-2-yl)-6-cyclopropyl-7-(6-fluoro-5-methyl-1H-indazol-4-yl)-2-((S)-2-methoxypropoxy)quinazolin-8-yl)oxy)methyl)-2-chlorophenyl)-1H-1,2,3-triazol-1-yl)-3-methylbutanoyl)-N—((R)-1-(4-(1-ethyl-1H-pyrazol-5-yl)phenyl)-2-hydroxyethyl)-4-hydroxypyrrolidine-2-carboxamide]	10 to 100	10 to 100
CCn1nccc1-c1ccc([C@H](CO)NC(=O)[C@@H]2C[C@@H](O)CN2C(=O)[C@H](C(C)C)n2cc(-c3ccc(COc4c(-c5c(C)c(F)cc6[nH]nc(F)c56)c(C5CC5)cc5c(N6C[C@@H]7C[C@H]6CN7)nc(OC[C@H](C)OC)nc45)cc3)nn2)cc1 [Example 33, (2S,4R)-1-((2S)-2-(4-(4-(((4-((1S,4S)-2,5-diazabicyclo[2.2.1]heptan-2-yl)-6-cyclopropyl-7-(3,6-difluoro-5-methyl-1H-indazol-4-yl)-2-((S)-2-methoxypropoxy)quinazolin-8-yl)oxy)methyl)phenyl)-1H-1,2,3-triazol-1-yl)-3-methylbutanoyl)-N—((R)-1-(4-(1-ethyl-1H-pyrazol-5-yl)phenyl)-2-hydroxyethyl)-4-hydroxypyrrolidine-2-carboxamide]	< 10	< 10
CCn1nccc1-c1ccc([C@H](CO)NC(=O)[C@@H]2C[C@@H](O)CN2C(=O)[C@H](C(C)C)n2cc(-c3ccc(COc4c(-c5c(C)c(F)cc6[nH]ncc56)c(C5CC5)cc5c(N6CC7CCC(C6)N7)nc(OC6CCOCC6)nc45)cc3)nn2)cc1 [Example 35, (2S,4R)-1-((2S)-2-(4-(4-(((4-(3,8-diazabicyclo[3.2.1]octan-3-yl)-6-cyclopropyl-7-(6-fluoro-5-methyl-1H-indazol-4-yl)-2-((tetrahydro-2H-pyran-4-yl)oxy)quinazolin-8-yl)oxy)methyl)phenyl)-1H-1,2,3-triazol-1-yl)-3-methylbutanoyl)-N—((R)-1-(4-(1-ethyl-1H-pyrazol-5-yl)phenyl)-2-hydroxyethyl)-4-hydroxypyrrolidine-2-carboxamide]	10 to 100	< 10
CCn1nccc1-c1ccc(CNC(=O)[C@@H]2C[C@@H](O)CN2C(=O)[C@H](C(C)C)n2cc(-c3ccc(COc4c(-c5c(C)c(F)cc6[nH]ncc56)c(C5CC5)cc5c(N6C[C@@H]7C[C@H]6CN7)nc(OC[C@H](C)OC)nc45)cc3)nn2)c2c1CC2 [Example 36, (2S,4R)-1-((2S)-2-(4-(4-(((4-((1S,4S)-2,5-diazabicyclo[2.2.1]heptan-2-yl)-6-cyclopropyl-7-(6-fluoro-5-methyl-1H-indazol-4-yl)-2-((S)-2-methoxypropoxy)quinazolin-8-yl)oxy)methyl)phenyl)-1H-1,2,3-triazol-1-yl)-3-methylbutanoyl)-N-((5-(1-ethyl-1H-pyrazol-5-yl)bicyclo[4.2.0]octa-1(6),2,4-trien-2-yl)methyl)-4-hydroxypyrrolidine-2-carboxamide]	10 to 100	10 to 100
